Assay results taken from US20240336659A1, “CELL-PENETRATING PEPTIDE, ANTI-CANCER PEPTIDE, AND PHARMACEUTICAL COMPOSITION FOR PREVENTING OR TREATING CANCER, COMPRISING SAME” (ONECUREGEN CO., LTD., priority 2021, published 2024).
Positions of bridges follow the written chain, without caps; N, C: chain ends. Residues, ends and D or L forms follow the SMILES beside them. No end group written: not given here.

How the values were obtained:
[1] = tested on: lung normal cell line WI38; conditions: WI38, 30 μM and 60 μM
Protocol: (§1) To analyze the cytotoxicity of cell therapeutic peptide fragments on normal cell lines, lung normal cell lines WI38 and CCD39 were treated with OCP9 (SEQ ID NO: 16), OCP9-VGLLIS84-7CC (SEQ ID NO: 44), OCP9-VGLLIS84-9CC (SEQ ID NO: 46) and OCP9-VGLL1S84-11CC (SEQ ID NO: 48) at 30 μM and 60 μM, respectively, and the growth degrees of the cell lines were evaluated.

[2] = tested on: lung normal cell line CCD39; conditions: CCD39, 30 μM and 60 μM
Protocol: as §1

[3] = tested on: stomach cancer cell line NUGC3; assay: Cell growth inhibition (sulforhodamine B staining); assay type: cell-based; conditions: for cancer cell growth inhibitory effect: NUGC3, 10 μM screening of Table 4 peptides; for cell permeability (as concluded from the growth inhibition screening): NUGC3, 10 μM screening; for cancer cell growth inhibitory efficacy: NUGC3, treated for each concentration
Protocol: (§2) Specifically, in order to confirm cell growth ability, a stomach cancer cell line NUGC3 and a breast cancer cell line SK-BR-3 were each subcultured in a 96-well plate, and the next day, peptide fragments Con, 7, and CC of Table 2 were treated with 100 μM each to the cell lines. After 72 hours, the cells were immobilized with a 10% trichloroacetic acid solution, and then stained the cell with a 0.4% sulforhodamine B solution for 1 hour, washed with acetic acid, and dried. Thereafter, the dried cells were dissolved in a 10 mM Tris solution and absorbance was measured at 510 nm using an ELISA plate reader.
In order to compare the cancer cell growth inhibitory effects of cancer therapeutic peptides according to cell-penetrating peptides, the stomach cancer cell line NUGC3 was treated with 10 μM each of cancer therapeutic peptide fragments in Table 4, and the cancer cell growth inhibitory effects were screened in the same manner as in Example 1.
Specifically, in order to confirm the cancer cell inhibition enhancing effect by enhancing the cell permeability of OCP5 among the novel synthesized CPPs, a cancer therapeutic peptide fragment represented by SEQ ID NO: 6 including the existing TAT and a cancer therapeutic peptide fragment represented by SEQ ID NO: 31 including the novel synthesized OCP5 were used. The stomach cancer cell lines NUGC3 and AGS, the breast cancer cell line SK-BR-3, and the pancreatic cancer cell line Capan-1 were treated with 25 μM SEQ ID NO: 6 and 100 μM SEQ ID NO: 31 for 72 hours, respectively, and the cancer cell growth inhibitory effects were compared in the same manner as in Example 1. […] Through this, it was confirmed that the novel CPP may be applied more effectively than the existing TAT to inhibit the cancer cell growth by the anticancer peptides.
(§3) To analyze the cancer cell growth inhibitory effect according to a length of the anticancer peptide fragment, OCP9-VGLLIS84-7 (SEQ ID NO: 43), OCP9-VGLLIS84-9CC (SEQ ID NO: 46), and OCP9-VGLLIS84-15 (SEQ ID NO: 49) were treated for each concentration to analyze the growth inhibitory effects of stomach cancer cell lines NUGC3 and NCI-N87. When stomach cancer cells were treated with cancer therapeutic peptides, the cancer cell growth inhibitory efficacy was shown in a concentration-dependent manner. In addition, it was confirmed that the growth inhibitory effect on the stomach cancer cell lines increased as the length of the anticancer peptide fragment increased (FIG. 7).
Specifically, the cancer cell growth inhibitory effect according to partial or entire cyclization of the anticancer peptide fragment was analyzed. The stomach cancer cell line NUGC3 was treated with a CPP fragment OCP9 (SEQ ID NO: 16), a partially cyclized sequence […] (SEQ ID NO: 33), or a sequence OCP9-VGLLIS84-7CC (SEQ ID NO: 40) including an entirely cyclized anticancer peptide at different concentrations of 1, 2.5, 5, 10, and 20 μM, respectively, and the cancer cell growth inhibitory effects were compared in the same manner as in Example 1.

[4] = tested on: cell line NUGC3; assay: Cell permeability of FITC-conjugated peptides by FACS; assay type: cell-based; conditions: NUGC3, 1.5 or 2.5 μM FITC-conjugated peptide, 3 hours; compared to TAT
Protocol: To quantitatively measure the cell permeability of the novel synthesized cell-penetrating peptides, 1.5 or 2.5 μM FITC-conjugated peptides were administered to the cell line NUGC3 or the normal cell line WI38, and after 3 hours, the amounts of FITC present in the cells were measured by FACS.

[5] = tested on: stomach cancer cell lines NUGC3; assay: Mouse xenograft experiment (tumor formation); assay type: in vivo, Balb-c/nude mouse; conditions: intraperitoneally 10 mg/kg once a day
Protocol: A mouse xenograft experiment was performed to analyze a tumor formation inhibitory effect of cancer therapeutic peptide fragments. Specifically, 5×10^6 stomach cancer cell lines NUGC3 were transplanted by subcutaneous injection into a flank site of a 6-week-old female Balb-c/nude mouse, and after one week (average tumor size 100 mm^3), Vehicle (0.9% saline), OCP5 (SEQ ID NO: 12), OCP5-VGLL1S84-15C (SEQ ID NO: 29), or OCP5-VGLL1S84-7C (SEQ ID NO: 33) was each administered intraperitoneally at 10 mg/kg once a day. Tumor size was measured with a digital caliper at 2-day intervals from the start of drug administration, and the tumor size (tumor size (mm^3)=long axis x short axis2) was calculated. The experiment was terminated when the average tumor size of the OCP5-administered group was 1,000 mm3, and then the tumor was extracted, and the tumor weight was measured.

[6] = tested on: stomach cancer cell line NCI-N87; assay: Cell growth inhibition (sulforhodamine B staining); assay type: cell-based; conditions: NCI-N87, treated for each concentration
Protocol: as §2, §3

CC[C@H](C)[C@@H]1NC(=O)[C@H](CCCNC(=N)N)NC(=O)[C@H](Cc2ccccc2)NC(=O)[C@H]([C@@H](C)CC)NC(=O)[C@H]([C@@H](C)CC)NC(=O)[C@H](CO)NC(=O)[C@@H](N)CSSC[C@@H](C(=O)O)NC(=O)[C@H](CCCCN)NC(=O)[C@H]([C@@H](C)O)NC(=O)[C@H](Cc2c[nH]c3ccccc23)NC(=O)[C@@H]2CCCN2C(=O)[C@H](CO)NC(=O)[C@H](CO)NC(=O)[C@H](Cc2ccc(O)cc2)NC(=O)[C@H](CCCNC(=N)N)NC(=O)[C@H](CCCNC(=N)N)NC(=O)[C@H](CCCNC(=N)N)NC(=O)[C@H](CCCNC(=N)N)NC(=O)[C@H](CCCNC(=N)N)NC(=O)[C@H](Cc2ccccc2)NC1=O [OCP9-VGLL1S84-7CC, CSIIFRIFRRRRR-YSSPWTKC] (HELM PEPTIDE1{C.S.I.I.F.R.I.F.R.R.R.R.R.Y.S.S.P.W.T.K.C}$PEPTIDE1,PEPTIDE1,1:R3-21:R3$$$V2.0)
cytotoxicity (growth inhibitory or abnormal effect) [1]: no cytotoxicity | cytotoxicity (growth inhibitory or abnormal effect) [2]: no cytotoxicity

CC[C@H](C)[C@@H]1NC(=O)[C@H](CCCNC(=N)N)NC(=O)[C@H](Cc2ccccc2)NC(=O)[C@H]([C@@H](C)CC)NC(=O)[C@H]([C@@H](C)CC)NC(=O)[C@H](CO)NC(=O)[C@@H](N)CSSC[C@@H](C(=O)O)NC(=O)[C@H](CCCCN)NC(=O)[C@H]([C@@H](C)O)NC(=O)[C@H](Cc2c[nH]c3ccccc23)NC(=O)[C@@H]2CCCN2C(=O)[C@H](CO)NC(=O)[C@H](CO)NC(=O)[C@H](Cc2ccc(O)cc2)NC(=O)[C@H](CCCNC(=N)N)NC(=O)[C@H](Cc2c[nH]c3ccccc23)NC(=O)[C@H](CCCNC(=N)N)NC(=O)[C@H](CCCNC(=N)N)NC(=O)[C@H](CCCNC(=N)N)NC(=O)[C@H](CCCNC(=N)N)NC(=O)[C@H](CCCNC(=N)N)NC(=O)[C@H](Cc2ccccc2)NC1=O [OCP9-VGLL1S84-9CC, CSIIFRIFRRRRR-WRYSSPWTKC] (HELM PEPTIDE1{C.S.I.I.F.R.I.F.R.R.R.R.R.W.R.Y.S.S.P.W.T.K.C}$PEPTIDE1,PEPTIDE1,1:R3-23:R3$$$V2.0)
cytotoxicity (growth inhibitory or abnormal effect) [1]: no cytotoxicity | cytotoxicity (growth inhibitory or abnormal effect) [2]: no cytotoxicity

CC[C@H](C)[C@@H]1NC(=O)[C@H](CCCNC(=N)N)NC(=O)[C@H](Cc2ccccc2)NC(=O)[C@H]([C@@H](C)CC)NC(=O)[C@H]([C@@H](C)CC)NC(=O)[C@H](CO)NC(=O)[C@@H](N)CSSC[C@@H](C(=O)O)NC(=O)[C@H](CCCCN)NC(=O)[C@H]([C@@H](C)O)NC(=O)[C@H](Cc2c[nH]c3ccccc23)NC(=O)[C@@H]2CCCN2C(=O)[C@H](CO)NC(=O)[C@H](CO)NC(=O)[C@H](Cc2ccc(O)cc2)NC(=O)[C@H](CCCNC(=N)N)NC(=O)[C@H](Cc2c[nH]c3ccccc23)NC(=O)[C@H](CCC(N)=O)NC(=O)[C@H](CC(N)=O)NC(=O)[C@H](CCCNC(=N)N)NC(=O)[C@H](CCCNC(=N)N)NC(=O)[C@H](CCCNC(=N)N)NC(=O)[C@H](CCCNC(=N)N)NC(=O)[C@H](CCCNC(=N)N)NC(=O)[C@H](Cc2ccccc2)NC1=O [OCP9-VGLL1S84-11CC, CSIIFRIFRRRRR-NQWRYSSPWTKC] (HELM PEPTIDE1{C.S.I.I.F.R.I.F.R.R.R.R.R.N.Q.W.R.Y.S.S.P.W.T.K.C}$PEPTIDE1,PEPTIDE1,1:R3-25:R3$$$V2.0)
cytotoxicity (growth inhibitory or abnormal effect) [1]: no cytotoxicity | cytotoxicity (growth inhibitory or abnormal effect) [2]: no cytotoxicity

KKKKRKVRGDSI (OCP15)
cancer cell growth inhibitory effect [3]: excluding

KKKKRKVSIIFIRGD (OCP16)
cancer cell growth inhibitory effect [3]: excluding

KKKKRKVSIIFRIF (OCP18)
intracellular permeability (amount of FITC in the cells) [4]: significantly increased

KKKKRKVSIRGD (OCP17)
cancer cell growth inhibitory effect [3]: excluding

RRRRRGDSIIF (OCP13)
cancer cell growth inhibitory effect [3]: excluding

RRRRRSIIFRGD (OCP12)
cancer cell growth inhibitory effect [3]: excluding

SIIFRIFLHLQK (OCP1)
cell permeability (as concluded from the growth inhibition screening) [3]: increased

SIIFRIFLHLQK-CYSSPWTKC (SIIFRIFLHLQKCYSSPWTKC; disulfide 13-21) [SEQ ID NO: 31]
cancer cell growth inhibitory effect [3]: significant cancer cell growth inhibitory effect

SIIFRIFLHLQKRRR (OCP5)
intracellular permeability (amount of FITC in the cells) [4]: significantly increased | effect on tumor formation compared to the vehicle group [5]: did not affect the tumor formation | cell permeability (as concluded from the growth inhibition screening) [3]: increased | cancer cell growth inhibitory effect [3]: increased

SIIFRIFRRRRR (OCP9)
intracellular permeability (amount of FITC in the cells) [4]: significantly increased

SIIFRIFRRRRR-PNQWRYSSPWTKPQP (SIIFRIFRRRRRPNQWRYSSPWTKPQP; OCP9-VGLL1S84-15) [OCP9-VGLLIS84-15]
cancer cell growth inhibitory efficacy [3]: concentration-dependent | cancer cell growth inhibitory efficacy [6]: concentration-dependent

SIIFRIFRRRRR-YSSPWTK (SIIFRIFRRRRRYSSPWTK; OCP9-VGLL1S84-7) [OCP9-VGLLIS84-7]
cancer cell growth inhibitory efficacy [3]: concentration-dependent | cancer cell growth inhibitory efficacy [6]: concentration-dependent
